Measured values taken from patent US20260209175A1, “PHARMACEUTICALLY ACCEPTABLE 5-METHOXY-N,N-DIMETHYL[…] AND COMPOSITIONS THEREOF” (priority 2022, published 2026).
Structures can show the parent of a compound that is named as a salt. Where two headings read alike, the source gives them in different places.

What was measured:
[1] = Dynamic Vapor Sorption (DVS) analysis of salts, with XRPD of the post-DVS sample; format: physicochemical
Method: XRPD diffractograms were acquired using Bruker D2 Phaser diffractometer equipped with LYNXEYE detector. Samples were prepared using a zero-background sample holder. The samples were scanned from 5 to 32° (2θ) using a step size of 0.02° and a time per step of 0.13 second whilst spinning the sample. Diffractograms were plotted using the EVA program from Bruker.
DVS analyses were performed on TA Instrument DVS Q5000. Samples were added to a pre-tared metallised quartz crucible and run at 25° C. from 40% RH to 90% RH, down to zero and back to 40%. This cycle was repeated in increments of 10% RH.

[2] = Dissolution rate in simulated nasal fluid (UV-fiber optic dissolution apparatus); format: physicochemical; details: 5 mg in 5 mL simulated nasal fluid, 37° C., 150 RPM
Method: The dissolution rate was determined using a method comprising the use of a UV-fiber optic-based dissolution apparatus (one such suitable device is the Rainbow® Dynamic Dissolution Monitor by Pion Inc) and simulated nasal fluid. The simulated nasal fluid comprises 7.45 g/L NaCl, 1.29 g/L KCl, 0.32 g/L CaCl2×2H2O and deionised water.
The dissolution apparatus was set up with a 2 mm probe to measure the dissolution rate. 5 mg of the salt form was transferred into 5 mL of simulated nasal fluid, heated to a constant temperature of 37° C. and stirred at 150 RPM using a crossed stirrer bar. Measurements were taken at 3 s intervals for 130 intervals followed by 60 measurements taken at 10 s intervals for a total time of 16 minutes and 30 s. Detection of dissolution is by UV absorbance.

[3] = format: physicochemical; details: 40° C./75% RH, three days
Method: Salt screening studies with 24 selected counter-ions were performed to determine if 5-MeO-DMT free base is amenable to salt formation. […] Salts were examined by XRPD, TGA, DSC, 1H NMR and some by DVS analyses. Short term physical stability was examined by storage of salts at 40° C./75% RH for three days.
Physical stability stress tests were conducted on generated crystalline salts at controlled temperature and relative humidity. The powder samples were stored at 40° C./75% RH for three days. After this time samples were analysed by XRPD to see whether the physical state of salts changed during the storage.

[4] = Thermo-Gravimetric Analysis (TGA), thermal stability; format: physicochemical; details: 10° C./min ramp; for thermally stable up to (TGA): nitrogen
Method: TGA thermograms were obtained with a TA Instrument Discovery 550 in Al pans. The heating rate used was 10° C./min linear ramp from 25 to 400° C. with a nitrogen purging at a rate of 60 ml/min. TGA thermograms were analysed using TRIOS software.

[5] = Solubility assessments in four different media; format: physicochemical; details: for pH after addition of 1 ml media at 37° C. / Observation / pH after addition of 1.5 ml media at 37° C.: 250 mg per vial; for solubility relative to other salts: comparison of the salt forms
Method: Solubility assessments of 5-MeO-DMT oxalate, hydrobromide fumarate and benzoate were performed in four different media: […]

[6] = Oxalate salt solubility by HPLC; format: physicochemical; details: pH 1.2 medium, simulated gastric fluid, thermodynamic from solid, mother liquors adjusted to the desired pH, read-out: Solubility (mg/mL) of free base
Method: The benzoate salt has a solubility of, at least, 100 mg/ml. The calibration curve of the free base was prepared between 0.031-0.500 mg/ml and can be seen in FIG. 172.
Mother liquors were adjusted to the desired pH before HPLC quantification.

[7] = salt screen / scale-up batches, DVS at 25° C

## Br.COc1ccc2[nH]cc(CCN(C)C)c2c1 [Hydrobromide salt, 5-MeO-DMT hydrobromide]
[1]; salt produced during scale-up
  solid form after DVS (XRPD post DVS): no change in crystalline form
[1]; [7]
  hygroscopicity classification: non-hygroscopic
[2]
  dissolution rate: almost instantaneous
[3]
  crystalline form by XRPD after storage: No change in crystalline form
[4]
  thermally stable up to (TGA): 220 °C
[5]; SNF
  pH after addition of 1 ml media at 37° C.: 8.13
[5]; SNF, 1 ml media at 37° C.
  Observation: Clear solution
[5]
  solubility relative to other salts: high solubility
[5]; pH 1.2 buffer
  pH after addition of 1 ml media at 37° C.: 8.09
[5]; pH 1.2 buffer, 1 ml media at 37° C.
  Observation: Clear solution
[5]; pH 4.5 buffer
  pH after addition of 1 ml media at 37° C.: 7.65
[5]; pH 4.5 buffer, 1 ml media at 37° C.
  Observation: Clear solution
[5]; pH 6.8 buffer
  pH after addition of 1 ml media at 37° C.: 7.82
[5]; pH 6.8 buffer, 1 ml media at 37° C.
  Observation: Clear solution

## COc1ccc2[nH]cc(CCN(C)C)c2c1 [Oxalate salt, 5-MeO-DMT oxalate]
[1]
  solid form after DVS (XRPD post DVS): no change in the crystalline form
[2]
  dissolution rate: prolonged
[6]
  solubility: 19 mg/mL
[5]; SNF
  pH after addition of 1.5 ml media at 37° C.: 2.13
[5]; SNF, 1.5 ml media at 37° C.
  Observation: Suspension
[5]
  solubility relative to other salts: lowest solubility
[5]; pH 1.2 buffer
  pH after addition of 1.5 ml media at 37° C.: 1.87
[5]; pH 1.2 buffer, 1.5 ml media at 37° C.
  Observation: Suspension
[5]; pH 4.5 buffer
  pH after addition of 1.5 ml media at 37° C.: 3.05
[5]; pH 4.5 buffer, 1.5 ml media at 37° C.
  Observation: Suspension
[5]; pH 6.8 buffer
  pH after addition of 1.5 ml media at 37° C.: 3.45
[5]; pH 6.8 buffer, 1.5 ml media at 37° C.
  Observation: Suspension

## COc1ccc2[nH]cc(CCN(C)C)c2c1 [Tartrate salt, 5-MeO-DMT tartrate]
[1]; 25° C
  total water (moisture) uptake between 0% RH and 90% RH: approximately 3.3 % w/w
[1]; DVS isotherm, 25° C
  sorption/desorption behaviour (reversibility, hysteresis): reversible and overlap
[1]; Example 3 Pattern 1 batches
  solid form after double-cycle DVS experiment (XRPD): unchanged
  total reversible mass change between 0-90% RH: 0.6 wt. %
[1]; Example 3 Pattern 1 batches, 0-90% RH
  hygroscopicity classification: slightly hygroscopic (Pharmaceuticals that pick up between 0.2% and 2.0% moisture at 80% RH are considered slightly hygroscopic)
[1]; [7]
  hygroscopicity classification: moderately hygroscopic (Pharmaceuticals that pick up between 2.0% and 15.0% moisture at 80% RH are considered moderately hygroscopic)
[1]; salt screen / scale-up batches, DVS at 25° C, listed as tartrate salt
  hygroscopicity classification: moderately hygroscopic (Pharmaceuticals that pick up between 2.0% and 15.0% moisture at 80% RH are considered moderately hygroscopic)
[1]; salt screen batches
  solid form after DVS (XRPD post DVS): did not undergo any solid form transformation
[3]
  crystalline form by XRPD after storage: No change in the crystalline form
[4]
  onset of decomposition / mass loss (TGA): 175 °C
  thermally stable up to (TGA): around 170 °C
